The values that follow come from ChEMBL document CHEMBL1201862, “PubChem BioAssay data set” (2004).

The target of one assay is Ephrin type-A receptor 4 (Mus musculus, UniProt Q03137). The assay is described as follows: inhibitors of EphA4 binding to KYL peptide, primary screen, biochemical, colorimetric, mouse EphA4 (AID 689). It is filed as functional.
The target in the next assay is NADPH oxidase 1 (Homo sapiens, UniProt Q9Y5S8). Kind of assay: Late-stage luminescence-based cell-based dose response assay to identify inhibitors of NADPH oxidase 1 (NOX1): Purchased analogs 2. It is filed as functional.
Sequence of NADPH oxidase 1 (Q9Y5S8 whole entry): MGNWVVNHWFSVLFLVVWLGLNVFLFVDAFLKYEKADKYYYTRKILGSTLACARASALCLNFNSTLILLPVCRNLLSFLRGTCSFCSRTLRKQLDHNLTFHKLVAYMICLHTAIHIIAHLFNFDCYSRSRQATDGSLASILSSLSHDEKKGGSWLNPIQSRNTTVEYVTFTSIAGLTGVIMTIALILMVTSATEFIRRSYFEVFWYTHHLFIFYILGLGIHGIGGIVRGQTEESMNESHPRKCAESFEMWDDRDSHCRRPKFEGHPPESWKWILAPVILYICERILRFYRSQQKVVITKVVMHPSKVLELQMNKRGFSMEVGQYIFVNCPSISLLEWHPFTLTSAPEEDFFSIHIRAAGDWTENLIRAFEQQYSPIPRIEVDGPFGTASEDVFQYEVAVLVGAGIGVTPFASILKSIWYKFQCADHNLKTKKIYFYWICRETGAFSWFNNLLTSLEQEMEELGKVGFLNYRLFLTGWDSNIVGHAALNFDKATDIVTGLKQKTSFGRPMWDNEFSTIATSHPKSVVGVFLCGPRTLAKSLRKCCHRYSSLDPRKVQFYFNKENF
Assay [1] in a line: HEp-2 cell cytotoxicity, dose response, cytotoxicity control for RSV inhibitor project, HTS (AID 2410). It is filed as functional. Conditions: human respiratory syncytial virus.
For assay [2], the system named is Vero. Kind of assay: host cell cytotoxicity of antiviral hits, dose response, cytotoxicity control for West Nile virus antiviral project, secondary assay (AID 1650). It is filed as functional. Conditions: Chlorocebus sabaeus.
Assay [3] relates to Vero. The assay is described as follows: West Nile virus antiviral activity, cell-based, CPE readout (AID 1621). It is filed as functional. Conditions: Chlorocebus sabaeus.
The target of assay [4] is T1, Microphthalmia-associated transcription factor (Homo sapiens, UniProt O75030).
T1 sequence (O75030 whole entry): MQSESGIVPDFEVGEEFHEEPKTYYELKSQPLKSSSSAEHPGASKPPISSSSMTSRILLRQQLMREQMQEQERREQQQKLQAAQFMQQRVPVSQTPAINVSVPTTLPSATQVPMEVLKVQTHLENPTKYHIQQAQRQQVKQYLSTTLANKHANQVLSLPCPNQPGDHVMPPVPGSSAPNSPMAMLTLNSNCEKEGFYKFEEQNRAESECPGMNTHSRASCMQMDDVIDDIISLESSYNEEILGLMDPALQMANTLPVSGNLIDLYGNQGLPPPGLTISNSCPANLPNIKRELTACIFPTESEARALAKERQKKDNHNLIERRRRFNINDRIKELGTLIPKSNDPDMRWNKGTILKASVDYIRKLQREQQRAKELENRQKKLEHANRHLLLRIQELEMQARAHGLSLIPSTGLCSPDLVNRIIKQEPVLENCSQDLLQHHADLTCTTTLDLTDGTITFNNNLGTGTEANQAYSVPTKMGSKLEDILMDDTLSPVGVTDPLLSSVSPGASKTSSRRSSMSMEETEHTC
Kind of assay: TRPM1 promoter luciferase signal decrease, dose response, MITF inhibitor project, cell-based, SK-MEL-5, cherry-picked, set 3 (AID 493073).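 Note: SK-MEL-5 melanoma cells with luciferase driven by the MITF target TRPM1 promoter.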 It is filed as functional.

Assay [5] concerns Vero. Kind of assay: cells. It is filed as functional, cell-based. Conditions: Chlorocebus sabaeus.
In assay [6] the test system is Vero. The assay is described as follows: cells. It is filed as functional. Conditions: Chlorocebus sabaeus.
A short description of assay [7]: Luminescent dose response cell-based high throughput screening assay for inhibitors of the Janus kinase 2 mutant JAK2V617F. [Related pubchem assays: 1446 (Primary screen.), 1521 (Confirmation assay.), 1486 (Counter screen.)]. It is filed as functional. (In general: The purpose of a counterscreen is to sort out artefacts and off-target activity.)
Assay [8] in a line: NIH-3T3 fibroblast cytotoxicity, dose response, cytotoxicity control, cell-based, fluorescence, Alamar Blue, secondary assay (AID 2327).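 Note: NIH-3T3 mouse fibroblasts cultured with fluconazole at 8 µg/mL.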 It is filed as functional. (Resazurin is reduced to fluorescent resorufin, in cell work by metabolically active cells.)
A short description of assay [9]: C. albicans growth with fluconazole, confirmation, fluorescence, retest (AID 2467). It is filed as functional, cell-based.
A short description of assay [10]: THP-1 cell cytotoxicity, dose response, cytotoxicity control for non-replicating M. tuberculosis project (AID 489025). It is filed as functional.
Assay [11] can be described thus: HepG2 cell cytotoxicity, dose response, cytotoxicity control for non-replicating M. tuberculosis project (AID 489018). It is filed as functional. Conditions: Mycobacterium tuberculosis.
Assay [12] in a line: Vero E6 cell cytotoxicity, dose response, cytotoxicity control for non-replicating M. tuberculosis project, secondary assay (AID 492998). Conditions: Vero C1008. It is filed as functional, VeroE6.
The nature of a further assay: cells. It is filed as functional.
Assay [13] addresses Heat shock protein HSP 90-alpha (Homo sapiens, UniProt P07900). It is filed as functional, organism-based.
For the next assay, the system named is INS1. The assay is described as follows: beta cell apoptosis inhibitors, cytokine rescue, dose response, luminescence, retest (AID 449756).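 Note: cell death triggered by IL-1 beta plus TNF-alpha plus IFN-gamma mixture; protective hits raise ATP signal compared with cytokine alone wells.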 Conditions: Rattus norvegicus. It is filed as functional, cell-based.
In assay [14] the target is Serine/threonine-protein phosphatase PP1-alpha catalytic subunit (Homo sapiens, UniProt P62136). The assay is described as follows: PP1 phosphatase inhibitors, dose response, biochemical, fluorescence (AID 2394).
Sequence of Serine/threonine-protein phosphatase PP1-alpha catalytic subunit (P62136 whole entry): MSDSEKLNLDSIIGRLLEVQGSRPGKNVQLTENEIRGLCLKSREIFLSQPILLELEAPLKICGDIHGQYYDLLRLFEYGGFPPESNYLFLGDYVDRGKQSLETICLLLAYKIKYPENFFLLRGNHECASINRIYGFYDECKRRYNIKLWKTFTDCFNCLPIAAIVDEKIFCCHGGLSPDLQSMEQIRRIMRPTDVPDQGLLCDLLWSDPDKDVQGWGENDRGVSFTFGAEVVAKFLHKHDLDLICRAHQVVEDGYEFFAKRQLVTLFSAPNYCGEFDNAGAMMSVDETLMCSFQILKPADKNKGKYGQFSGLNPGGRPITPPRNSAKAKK
For assay [15], the target named is Serine/threonine-protein phosphatase (Homo sapiens, UniProt Q9BPW0). Kind of assay: PP5 phosphatase inhibitors, dose response, biochemical, fluorescence (AID 2395).
Sequence of Serine/threonine-protein phosphatase (Q9BPW0 whole entry): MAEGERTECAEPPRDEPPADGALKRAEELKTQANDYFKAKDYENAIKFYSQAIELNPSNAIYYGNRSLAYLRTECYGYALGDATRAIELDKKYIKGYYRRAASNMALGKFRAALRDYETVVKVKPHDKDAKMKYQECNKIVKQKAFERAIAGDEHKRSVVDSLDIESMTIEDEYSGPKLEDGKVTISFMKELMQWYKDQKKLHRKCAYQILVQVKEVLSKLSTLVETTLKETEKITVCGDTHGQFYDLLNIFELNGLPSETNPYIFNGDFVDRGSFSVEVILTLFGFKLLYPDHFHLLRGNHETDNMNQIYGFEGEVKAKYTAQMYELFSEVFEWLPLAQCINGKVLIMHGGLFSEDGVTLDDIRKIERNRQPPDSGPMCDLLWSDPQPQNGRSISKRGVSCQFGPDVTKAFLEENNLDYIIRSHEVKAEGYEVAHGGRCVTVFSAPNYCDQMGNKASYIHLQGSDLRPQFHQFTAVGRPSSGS
Assay [16] addresses G-protein coupled receptor 35 (Homo sapiens, UniProt Q9HC97). Kind of assay: SAR Analysis for the identification of Selective Antagonists of ERK1/2 Activity in GPR35-Overexpressing U2OS Cells. [Related pubchem assays: 2079, 2058 ]. It is filed as functional, cell-based.
The target of assay [17] is Tyrosine-protein phosphatase non-receptor type 12 (Homo sapiens, UniProt Q05209). The assay is described as follows: SAR Selectivity Analysis of small molecule inhibitors of PEST using pCAP in a fluorescence assay. [Related pubchem assays (depositor defined):AID1779, AID1784, AID2135]. It is filed as functional.
Sequence of Tyrosine-protein phosphatase non-receptor type 12 (Q05209 whole entry): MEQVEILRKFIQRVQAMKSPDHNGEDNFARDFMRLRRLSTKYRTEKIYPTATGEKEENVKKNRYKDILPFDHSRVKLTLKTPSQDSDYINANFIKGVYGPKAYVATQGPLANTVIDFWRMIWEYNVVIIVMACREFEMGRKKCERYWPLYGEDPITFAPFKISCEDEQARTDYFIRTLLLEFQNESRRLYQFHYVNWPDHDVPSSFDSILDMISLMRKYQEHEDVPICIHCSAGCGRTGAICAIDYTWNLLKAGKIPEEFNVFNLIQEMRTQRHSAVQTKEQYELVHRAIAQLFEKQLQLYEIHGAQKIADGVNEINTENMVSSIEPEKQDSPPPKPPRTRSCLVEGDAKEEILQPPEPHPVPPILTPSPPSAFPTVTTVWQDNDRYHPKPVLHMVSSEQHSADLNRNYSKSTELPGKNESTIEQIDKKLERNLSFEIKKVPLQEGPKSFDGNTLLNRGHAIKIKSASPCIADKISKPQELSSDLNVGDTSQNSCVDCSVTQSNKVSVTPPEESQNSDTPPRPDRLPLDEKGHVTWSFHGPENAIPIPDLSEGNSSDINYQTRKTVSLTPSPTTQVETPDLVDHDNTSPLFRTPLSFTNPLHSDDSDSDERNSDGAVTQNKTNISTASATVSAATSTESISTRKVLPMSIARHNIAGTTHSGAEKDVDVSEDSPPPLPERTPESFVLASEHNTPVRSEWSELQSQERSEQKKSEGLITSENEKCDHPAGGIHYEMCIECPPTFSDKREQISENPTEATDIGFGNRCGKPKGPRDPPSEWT
Assay [18] addresses T2, Tyrosine-protein phosphatase non-receptor type 22 (Homo sapiens, UniProt Q9Y2R2).
T2 sequence (Q9Y2R2 whole entry): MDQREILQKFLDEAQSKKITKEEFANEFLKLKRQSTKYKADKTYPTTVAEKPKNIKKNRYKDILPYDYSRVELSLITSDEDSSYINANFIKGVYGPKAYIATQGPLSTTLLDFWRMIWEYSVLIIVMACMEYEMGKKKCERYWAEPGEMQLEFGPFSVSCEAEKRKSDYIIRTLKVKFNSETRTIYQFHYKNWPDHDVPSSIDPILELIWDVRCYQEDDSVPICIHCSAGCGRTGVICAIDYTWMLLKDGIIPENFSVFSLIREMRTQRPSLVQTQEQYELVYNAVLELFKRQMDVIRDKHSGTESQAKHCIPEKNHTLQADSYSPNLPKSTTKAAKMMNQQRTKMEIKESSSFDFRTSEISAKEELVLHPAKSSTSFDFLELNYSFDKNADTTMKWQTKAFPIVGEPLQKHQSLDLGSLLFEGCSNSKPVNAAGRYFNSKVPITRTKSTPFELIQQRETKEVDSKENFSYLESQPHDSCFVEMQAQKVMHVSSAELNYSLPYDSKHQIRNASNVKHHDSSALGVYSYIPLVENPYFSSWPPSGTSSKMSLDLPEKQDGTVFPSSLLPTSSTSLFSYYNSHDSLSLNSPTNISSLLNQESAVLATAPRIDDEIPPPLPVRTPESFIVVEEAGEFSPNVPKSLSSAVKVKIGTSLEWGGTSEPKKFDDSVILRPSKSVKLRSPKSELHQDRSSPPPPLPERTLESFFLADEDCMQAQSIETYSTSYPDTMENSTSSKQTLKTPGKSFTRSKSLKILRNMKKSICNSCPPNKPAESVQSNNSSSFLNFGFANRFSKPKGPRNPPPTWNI
The assay is described as follows: SAR LYP1 Fluorescent Assay using OMFP substrate for In Vitro dose response studies - Set 3. [Related pubchem assays (depositor defined):AID1779, AID1784, AID2140, AID2686]. It is filed as functional.

Assay [19] addresses T3, Tyrosine-protein phosphatase non-receptor type 7 (Homo sapiens, UniProt P35236).
T3 sequence (P35236 whole entry): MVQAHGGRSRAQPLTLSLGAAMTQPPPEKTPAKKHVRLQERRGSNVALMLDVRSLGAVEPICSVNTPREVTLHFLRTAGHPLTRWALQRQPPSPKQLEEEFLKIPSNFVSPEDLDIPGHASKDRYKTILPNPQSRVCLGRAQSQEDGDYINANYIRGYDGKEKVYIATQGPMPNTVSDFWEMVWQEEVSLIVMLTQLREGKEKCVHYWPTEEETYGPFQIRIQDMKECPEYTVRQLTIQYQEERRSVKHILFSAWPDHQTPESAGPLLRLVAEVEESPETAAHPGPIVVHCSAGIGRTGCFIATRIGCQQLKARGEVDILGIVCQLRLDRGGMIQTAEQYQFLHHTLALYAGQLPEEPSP
Kind of assay: HePTP (PTPN7) phosphatase inhibitor potency, SAR follow-up, biochemical, set 2 (AID 449736). It is filed as functional.

The target in assay [20] is T2, Tyrosine-protein phosphatase non-receptor type 22. The assay is described as follows: LYP (PTPN22) phosphatase inhibitor potency, SAR follow-up, biochemical, pCAP fluorogenic substrate, fluorescence, set 3 (AID 449727). It is filed as functional.
In assay [21] the target is G-protein coupled receptor 55 (Homo sapiens, UniProt Q9Y2T6). The assay is described as follows: GPR55 antagonists, SAR follow-up, counter-screen for GPR35 antagonist project, imaging, image-based (AID 2397). It is filed as functional.
Sequence of G-protein coupled receptor 55 (Q9Y2T6 whole entry): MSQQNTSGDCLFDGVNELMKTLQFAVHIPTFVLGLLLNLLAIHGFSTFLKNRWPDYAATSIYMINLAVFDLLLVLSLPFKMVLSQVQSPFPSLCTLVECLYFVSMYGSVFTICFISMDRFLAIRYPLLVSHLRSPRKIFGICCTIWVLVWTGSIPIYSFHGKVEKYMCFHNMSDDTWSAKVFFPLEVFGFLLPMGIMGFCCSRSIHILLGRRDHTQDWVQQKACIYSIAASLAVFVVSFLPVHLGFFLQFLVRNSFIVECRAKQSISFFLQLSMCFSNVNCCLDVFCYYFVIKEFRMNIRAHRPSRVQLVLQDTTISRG

Active and inactive are the calls of the source.

Sequence of G-protein coupled receptor 35 (Q9HC97 whole entry): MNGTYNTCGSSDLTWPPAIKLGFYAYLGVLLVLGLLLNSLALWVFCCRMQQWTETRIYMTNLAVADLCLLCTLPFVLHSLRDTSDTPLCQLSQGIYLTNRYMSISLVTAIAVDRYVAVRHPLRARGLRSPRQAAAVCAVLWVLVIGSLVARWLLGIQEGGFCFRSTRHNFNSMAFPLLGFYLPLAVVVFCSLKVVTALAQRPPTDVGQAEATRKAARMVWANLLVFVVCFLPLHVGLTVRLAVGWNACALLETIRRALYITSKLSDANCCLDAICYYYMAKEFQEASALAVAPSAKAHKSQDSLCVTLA
Sequence of Ephrin type-A receptor 4 (Q03137 whole entry): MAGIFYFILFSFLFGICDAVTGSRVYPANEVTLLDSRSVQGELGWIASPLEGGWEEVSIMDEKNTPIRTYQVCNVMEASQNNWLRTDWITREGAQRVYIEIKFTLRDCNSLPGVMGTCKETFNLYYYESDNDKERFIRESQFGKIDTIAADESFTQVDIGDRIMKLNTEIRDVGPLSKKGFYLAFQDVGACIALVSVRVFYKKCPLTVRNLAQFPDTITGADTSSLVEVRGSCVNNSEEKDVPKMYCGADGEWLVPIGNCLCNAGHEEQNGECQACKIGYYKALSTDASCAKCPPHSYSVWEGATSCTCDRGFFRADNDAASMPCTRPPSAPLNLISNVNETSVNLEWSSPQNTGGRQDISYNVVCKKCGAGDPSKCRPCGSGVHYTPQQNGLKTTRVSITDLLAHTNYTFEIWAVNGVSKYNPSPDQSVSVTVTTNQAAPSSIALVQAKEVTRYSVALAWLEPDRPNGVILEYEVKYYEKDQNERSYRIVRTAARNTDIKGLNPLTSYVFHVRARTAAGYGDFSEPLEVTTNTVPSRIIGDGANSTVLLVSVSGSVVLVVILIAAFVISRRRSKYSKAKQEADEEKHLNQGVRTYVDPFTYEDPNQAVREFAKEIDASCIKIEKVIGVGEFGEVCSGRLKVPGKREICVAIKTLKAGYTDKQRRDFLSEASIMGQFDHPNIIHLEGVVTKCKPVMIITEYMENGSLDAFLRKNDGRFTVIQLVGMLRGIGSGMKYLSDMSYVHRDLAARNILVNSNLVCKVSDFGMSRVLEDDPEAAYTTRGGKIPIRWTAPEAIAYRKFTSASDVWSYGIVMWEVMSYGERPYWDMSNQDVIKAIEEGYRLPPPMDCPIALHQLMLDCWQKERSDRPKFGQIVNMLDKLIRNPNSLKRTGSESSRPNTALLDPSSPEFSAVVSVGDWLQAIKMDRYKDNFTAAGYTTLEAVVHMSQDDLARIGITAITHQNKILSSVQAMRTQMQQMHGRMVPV

One may read the IC50 as the concentration that inhibits the measured activity by half. Regarding `Cc1cc(C=C2C(=O)N(C)C(=S)N(C)C2=O)c(C)n1C1CCCCC1`, at Ephrin type-A receptor 4, the IC50 was 5.14 µM (active).
Consider `Fc1nc(F)c(F)c(N/N=C/c2ccc(Br)cc2)c1F`, for which the IC50 on NADPH oxidase 1 is reported as > 17 µM (not active).
Broadly, the CC50 is the concentration giving 50% cytotoxicity. As usually defined, the AC50 is the concentration at which the activity in the assay is half-maximal. With `NCCCNc1nc(N)c([N+](=O)[O-])c(NC2CCCCC2)n1`, the CC50 in assay [1] is 18.2 µM (active); in the assay with Vero [2], 13.4 µM (active); in the assay with Vero [6] it was 11.6 µM (active). Also, the results for the IC50 in the assay with Vero [3] and in the assay with Vero [5] were 8.89 µM (active) and 6 µM (active), respectively. Besides, the AC50 in [4] is 6.36 µM (active).
As usually defined, the EC50 is the midpoint of the concentration-response curve. As to `COc1cccc(F)c1C(C[N+](=O)[O-])c1c(N)n(C)c(=O)n(C)c1=O` (stereo unspecified), the results for the IC50 (in assay [7]; in “cells”) were 1.06 µM (active) and 5.94 µM (active), respectively. Besides, the EC50 in assay [8] was 5.27 µM (active); in assay [9], 0.779 µM (active). Besides, the CC50 in assay [10] is 7.28 µM (active); in assay [11], 16.2 µM (active); in assay [12], 4.73 µM (active); in the assay on Vero [6], 8.24 µM (active). Besides, the AC50 in [13] was 3.91 µM (active); in the assay with INS1, 7.85 µM (active).
Turning to `COc1ccc(Cn2c(N)c(C(=O)NCc3ccco3)c3nc4ccccc4nc32)cc1OC`, the IC50 in assay [14] is > 67 µM (not active); in assay [15], 46.5 µM (not active).
Regarding `CCOC(=O)c1ccc(NC(=O)CCCN2C(=O)/C(=C/c3ccc(C)cc3)SC2=S)cc1`, the IC50 was 21.4 µM (not active) in assay [16]; 96.4 µM (active) in [17]; > 100 µM (inactive) in [18]; > 100 µM (inactive) in [19]; > 100 µM (inactive) in assay [20]; > 32 µM (inactive) in assay [21].
